Measured values published in patent US11191717B2, “Topical therapy for the treatment of skin malignancies using nanoparticles of taxanes” (DFB SORIA, LLC, priority 2017, dated 2021).
Like-named read-outs stand apart in the source and are kept apart here.

Columns and labels:
[1] = tested on: intact human cadaver skin; experiment: In vitro skin penetration diffusion study (Franz diffusion cell); format: in vitro ADME; conditions: results in Table 14 (formulas F1 through F13)
Protocol: The skin was centered and the edges flattened out. […] Additional receptor fluid was added where necessary.
Cells were left uncapped during the experiment.

[2] = methanol/water 15/85 (v/v), 37° C., pH 7, 75 rpm, cited from earlier work
[3] = Particle size analysis of paclitaxel nanoparticles lots (ACCUSIZER 780); format: physicochemical; conditions: nanoparticle API in 0.1% w/w SDS solution
Protocol: Instrument parameters: Max. Concentration: 9000 particles/mL, No. containers: 1, Sensor Range: Summation, Lower Detection Limit: 0.5 μm, Flow Rate: 30 mL/min, No. Analysis pulls: 4, Time between pulls: 1 sec, Pull volume: 10 mL, Tare Volume: 1 mL, Prime volume: 1 mL, Include First Pull: Not Selected.
Vortexed for 5-10 minutes and sonicated in a water batch for 1 minute.
Method: Filled a plastic bottle with filtered (0.22 μm) 0.1% w/w SDS solution and analyzed the Background.

[4] = Observations of paclitaxel nanoparticle crystals in various substances and solutions of substances (light microscopy); format: physicochemical

CC(=O)O[C@H]1C(=O)[C@@]2(C)[C@H]([C@H](OC(=O)c3ccccc3)[C@]3(O)C[C@H](OC(=O)[C@H](O)[C@@H](NC(=O)c4ccccc4)c4ccccc4)C(C)=C1C3(C)C)[C@]1(OC(C)=O)CO[C@@H]1C[C@@H]2O [Paclitaxel, paclitaxel]
transdermal flux of the paclitaxel through the skin (epidermis and dermis) [1]: less than 0.01 μg/cm^2

CC(=O)O[C@@]12CO[C@@H]1C[C@H](O)[C@@]1(C)C(=O)[C@H](O)C3=C(C)[C@@H](OC(=O)[C@H](O)[C@@H](NC(=O)OC(C)(C)C)c4ccccc4)C[C@@](O)([C@@H](OC(=O)c4ccccc4)[C@H]21)C3(C)C [docetaxel nanoparticles, docetaxel]
dissolution rate, dissolved in 30 minutes ([2]; made by milling): 9% | dissolution rate, dissolved in 30 minutes ([2]; made by the supercritical carbon dioxide method): 27%

CC(=O)O[C@H]1C(=O)[C@@]2(C)[C@H]([C@H](OC(=O)c3ccccc3)[C@]3(O)C[C@H](OC(=O)[C@H](O)[C@@H](NC(=O)c4ccccc4)c4ccccc4)C(C)=C1C3(C)C)[C@]1(OC(C)=O)CO[C@@H]1C[C@@H]2O [Paclitaxel nanoparticles lot used in formulas listed in Tabl] [listing 1 of 2 here]
Particle size, Mean (number-weighted differential distribution) [3]: 0.861 μm | Particle size, Median (number-weighted differential distribution) [3]: 0.710 μm | Particle size, Mode (number-weighted differential distribution) [3]: 0.572 μm

CC(=O)O[C@H]1C(=O)[C@@]2(C)[C@H]([C@H](OC(=O)c3ccccc3)[C@]3(O)C[C@H](OC(=O)[C@H](O)[C@@H](NC(=O)c4ccccc4)c4ccccc4)C(C)=C1C3(C)C)[C@]1(OC(C)=O)CO[C@@H]1C[C@@H]2O [Paclitaxel nanoparticles lot used in formulas listed in Tabl] [listing 2 of 2 here]
Particle size, Mean (number-weighted differential distribution) [3]: 0.83 μm

CC(=O)O[C@H]1C(=O)[C@@]2(C)[C@H]([C@H](OC(=O)c3ccccc3)[C@]3(O)C[C@H](OC(=O)[C@H](O)[C@@H](NC(=O)c4ccccc4)c4ccccc4)C(C)=C1C3(C)C)[C@]1(OC(C)=O)CO[C@@H]1C[C@@H]2O [Paclitaxel nanoparticles, paclitaxel]
Visual observation by light microscopy- Needle shaped crystals observed? ([4]; in Aluminum sulfate 0.1-0.2% in water, @ 7 days, RT): Yes, >5 μm, @ | Visual observation by light microscopy- Needle shaped crystals observed? ([4]; in Ammonium lauryl sulfate 2% in water, @ 3 days, RT): Yes, >5 μm @ | Visual observation by light microscopy- Needle shaped crystals observed? ([4]; in Benzalkonium chloride (50%) 2% in water, @ 7 days & 21 days, RT): No, <5 μm @ | Visual observation by light microscopy- Needle shaped crystals observed? ([4]; in CARBOPOL ULTREZ 10 (with Ammonium hydroxide as neutralizer) 0.5% in water, @ 8 days & 21 days, RT): No, <5 μm, @ 8 | Visual observation by light microscopy- Needle shaped crystals observed? ([4]; in Castor Oil 100%, @ 24 hrs & 9 days, RT): No, <5 μm @ 24 | Visual observation by light microscopy- Needle shaped crystals observed? ([4]; in Dimethicone, 1000 cSt 100%, @ 24 hrs & 6 days, RT): No, <5 μm @ 24 | Visual observation by light microscopy- Needle shaped crystals observed? ([4]; in FOMBLIN HC04 100%, @ 4, 7 & 13 days, RT): No, <5 μm @ 4, | Visual observation by light microscopy- Needle shaped crystals observed? ([4]; in Hydroxyethyl cellulose 1% in water, @ 7 days, RT): Yes, >5 μm, @ | Visual observation by light microscopy- Needle shaped crystals observed? ([4]; in Hydroxypropyl methylcellulose 1% in water, @ 3 days, RT): Yes, >5 μm @ | Visual observation by light microscopy- Needle shaped crystals observed? ([4]; in Lecithin 1% in water, @ 24 hrs, RT): Yes, >10 μm, @ | Visual observation by light microscopy- Needle shaped crystals observed? ([4]; in Light Mineral Oil NF 100%, @ 3 days, RT & 40 C.): No, <5 μm @ 3 | Visual observation by light microscopy- Needle shaped crystals observed? ([4]; in Magnesium nitrate 5% in water, @ 3 days, RT): Yes, >5 μm @ | Visual observation by light microscopy- Needle shaped crystals observed? ([4]; in Mannitol 5% in water, @ 7 days, RT): Yes, >5 μm, @ | Visual observation by light microscopy- Needle shaped crystals observed? ([4]; in Mineral Oil USP (heavy) 100%, @ 3 days, RT & 40 C.): No, <5 μm @ 3 | Visual observation by light microscopy- Needle shaped crystals observed? ([4]; in PEG 400 10% in water, @ 22 days, RT & 60 C.): Yes, >5 μm @ 22 | Visual observation by light microscopy- Needle shaped crystals observed? ([4]; in Poloxamer 188 2% in water, @ 7 days, RT): Yes, >5 μm @ 7 | Visual observation by light microscopy- Needle shaped crystals observed? ([4]; in Poloxamer 407 2% in water, @ 5 & 7 days, RT): No, <5 μm @ | Visual observation by light microscopy- Needle shaped crystals observed? ([4]; in Polyoxyl 40 Hydrogenated Castor Oil (KOLLIPHOR RH40) 1% in water, @ 6 days, RT): Yes, <5 μm @ 6 | Visual observation by light microscopy- Needle shaped crystals observed? ([4]; in Polysorbate 80 0.5% in Saline, @ 7 days, RT & 60 C.): Yes, >5 μm @ | Visual observation by light microscopy- Needle shaped crystals observed? ([4]; in Polysorbate 80 0.5% in water, @ 22 days, RT & 60 C.): Yes, <5 μm @ 22 | Visual observation by light microscopy- Needle shaped crystals observed? ([4]; in Povidone 1% in water, @ 7 days & 21 days, RT): Yes, <5 μm @ 7 | Visual observation by light microscopy- Needle shaped crystals observed? ([4]; in Proline 3% in water, @ 7 days, RT): Yes, >5 μm, @ | Visual observation by light microscopy- Needle shaped crystals observed? ([4]; in Purified Water 100%, @ 5 days, RT & 60 C.): Yes, >5 μm, @ 5 | Visual observation by light microscopy- Needle shaped crystals observed? ([4]; in ST-Cyclomethicone 5 NF 100%, @ 24 hrs & 13 days, RT): No, <5 μm @ 24 | Visual observation by light microscopy- Needle shaped crystals observed? ([4]; in Saline 0.9% NaCl in water, @ 7 days, RT & 60 C.): Yes, >10 μm, @ | Visual observation by light microscopy- Needle shaped crystals observed? ([4]; in Sodium lauryl sulfate 2% in water, @ 7 days, RT): Yes, >5 μm, @ | Visual observation by light microscopy- Needle shaped crystals observed? ([4]; in Sodium phosphate monobasic 0.75% in water, @ 7 days, RT): Yes, >5 μm, @ | Visual observation by light microscopy- Needle shaped crystals observed? ([4]; in Sorbitol 5% in water, @ 7 days, RT): Yes, >5 μm, @ | Visual observation by light microscopy- Needle shaped crystals observed? ([4]; in Vitamin E TPGS 0.5% in water, @ 6 days, RT): Yes, <5 μm @ 6 | Visual observation by light microscopy- Needle shaped crystals observed? ([4]; in Zinc acetate […] in water, @ 7 days, RT): Yes, >5 μm, @
